Experimental data reported in patent US6737383B1, “Herbicidal oxadiazolidines” (priority 1999, dated 2004).

What was measured:
cocklebur = assay: Test B pre/postemergence cocklebur; type: in vivo, Xanthium strumarium
In short: (§1)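 Test chemicals in a non-phytotoxic solvent mixture with surfactant were sprayed preemergence onto planted seeds and postemergence onto plants 2 to 18 cm tall (1- to 4-leaf stage). After twelve to sixteen days in a greenhouse, injury was visually rated against untreated controls from 0 (no effect) to 10 (complete control).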

crabgrass = assay: Test B pre/postemergence crabgrass; type: in vivo, Digitaria sanguinalis
In short: as §1

wheat = assay: Test B pre/postemergence wheat; type: in vivo, Triticum aestivum
In short: as §1

wild oat [1] = assay: Test B pre/postemergence wild oat; type: in vivo, Avena fatua
In short: as §1

winter wheat [2] = assay: Test E winter wheat; type: in vivo, Triticum aestivum; conditions: Postemergence
In short: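 For postemergence, application to 1- to 4-leaf plants growing in a 60:40 sandy loam–potting mix substrate. Formulation: non-phytotoxic solvent mixture plus surfactant. Untreated controls served as the reference for the visual rating after ~21–28 days.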

blackgrass = assay: Test E blackgrass; type: in vivo, Alopecurus myosuroides; conditions: Preemergence
green foxtail = assay: Test E green foxtail; type: in vivo, Setaria viridis; conditions: Preemergence
Italian ryegrass = assay: Test E Italian ryegrass; type: in vivo, Lolium multiflorum; conditions: Preemergence
winter wheat [3] = assay: Test E winter wheat; type: in vivo, Triticum aestivum; conditions: Preemergence
wild oat [4] = assay: Test E wild oat; type: in vivo, Avena fatua; conditions: Preemergence
winter barley = assay: Test E winter barley; type: in vivo, Hordeum vulgare; conditions: Preemergence
[5] = Postemergence, Rate 62 g/ha, scale 0 to 10, 0 is no effect, 10 is complete control
[6] = Postemergence, Rate 125 g/ha, scale of 0 to 10 where 0 is no effect and 10 is complete control
[7] = Postemergence, Rate 250 g/ha, scale 0 to 10, 0 no effect, 10 complete control
[8] = Preemergence, Rate 31 g/ha, visual rating, scale 0 to 10 (0 no effect, 10 complete control)
[9] = Preemergence, Rate 62 g/ha, scale 0 to 10 (0 no effect, 10 complete control)
[10] = Preemergence, Rate 125 g/ha, scale 0 to 10 (0 no effect, 10 complete control)
[11] = Preemergence, Rate 250 g/ha, scale of 0 to 10 where 0 is no effect and 10 is complete control
[12] = Rate 31 g/ha, Postemergence, scale 0 to 10
[13] = Preemergence, Rate 125 g/ha, 0 is no effect, 10 is complete control
[14] = Rate 250 g/ha, Postemergence, scale 0 to 10, 0 is no effect, 10 is complete control
[15] = Rate 125 g/ha, 0 to 100 scale (0 no effect, 100 complete control)
[16] = Rate 500 g/ha, 0 to 100 scale where 0 is no effect and 100 is complete control
[17] = Postemergence, Rate 250 g/ha, scale of 0 to 10, 0 is no effect, 10 is complete control
[18] = Postemergence, Rate 500 g/ha, scale of 0 to 10 where 0 is no effect and 10 is complete control
[19] = Preemergence, Rate 62 g/ha, scale of 0 to 10 where 0 is no effect and 10 is complete control
[20] = Preemergence, Rate 125 g/ha, scale of 0 to 10 where 0 is no effect and 10 is complete control
[21] = Preemergence, Rate 250 g/ha, scale 0 to 10 (0 no effect, 10 complete control)
[22] = Preemergence, Rate 500 g/ha, scale of 0 to 10 where 0 is no effect and 10 is complete control

CC(C)N(C(=O)n1oc(=O)n(-c2cnn(C)c2)c1=O)c1ccc(F)cc1 [Compound 98]
Cocklebur plant response rating (cocklebur; [5]): 0
Cocklebur plant response rating (cocklebur; [6]): 0
Cocklebur plant response rating (cocklebur; [7]): 0
Cocklebur plant response rating (cocklebur; [8]): 0
Cocklebur plant response rating (cocklebur; [9]): 0
Plant response rating, Cocklebur (cocklebur; [10]): 0
Plant response rating, Cocklebur (cocklebur; [11]): 0
Cocklebur plant response rating (cocklebur; [12]): 0
Crabgrass plant response rating (crabgrass; [5]): 0
Crabgrass plant response rating (crabgrass; [6]): 0
Crabgrass plant response rating (crabgrass; [7]): 2
Crabgrass plant response rating (crabgrass; [8]): 2
Crabgrass plant response rating (crabgrass; [9]): 4
Plant response rating, Crabgrass (crabgrass; [10]): 7
Plant response rating, Crabgrass (crabgrass; [11]): 8
Crabgrass plant response rating (crabgrass; [12]): 0
Wheat plant response rating (wheat; [5]): 0
Wheat plant response rating (wheat; [6]): 0
Wheat plant response rating (wheat; [8]): 0
Wheat plant response rating (wheat; [9]): 0
Wheat plant response rating (0 to 10 scale) (wheat; [13]): 0
Plant response rating, Wheat (wheat; [11]): 1
Plant response rating, Wheat (wheat; [14]): 0
Wild oats plant response rating (wild oat [1]; [5]): 0
Wild oats plant response rating (wild oat [1]; [6]): 0
Wild oats plant response rating (wild oat [1]; [8]): 0
Wild oats plant response rating (wild oat [1]; [9]): 0
Wild oats plant response rating (0 to 10 scale) (wild oat [1]; [13]): 0
Plant response rating, Wild oats (wild oat [1]; [11]): 2
Plant response rating, Wild oats (wild oat [1]; [14]): 0
Plant response rating, Wheat (winter) (winter wheat [2]; Rate 125 g/ha, 0 to 100 scale): 30
Plant response rating, Wheat (winter) (winter wheat [2]; Rate 250 g/ha, 0 to 100 scale (0 no effect, 100 complete control)): 50
Plant response rating, Wheat (winter) (winter wheat [2]; Rate 500 g/ha, 0 to 100 scale, 0 no effect, 100 complete control): 55
Plant response rating, Blackgrass (blackgrass; [15]): 30
Plant response rating, Blackgrass (blackgrass; Rate 250 g/ha, 0 to 100 scale): 20
Plant response rating, Blackgrass (blackgrass; [16]): 55
Plant response rating, Green foxtail (green foxtail; [15]): 60
Plant response rating, Green foxtail (green foxtail; Rate 250 g/ha, 0 to 100 scale): 60
Plant response rating, Green foxtail (green foxtail; [16]): 65
Plant response rating, I. Ryegrass (Italian ryegrass; [15]): 50
Plant response rating, I. Ryegrass (Italian ryegrass; Rate 250 g/ha, 0 to 100 scale): 50
Plant response rating, I. Ryegrass (Italian ryegrass; [16]): 60
Plant response rating, Wheat (winter) (winter wheat [3]; [15]): 30
Plant response rating, Wheat (winter) (winter wheat [3]; Rate 250 g/ha, 0 to 100 scale): 40
Plant response rating, Wheat (winter) (winter wheat [3]; [16]): 40
Plant response rating, Wild oat (wild oat [4]; [15]): 50
Plant response rating, Wild oat (wild oat [4]; [16]): 50
Plant response rating, Barley (winter) (winter barley; [15]): 20
Plant response rating, Barley (winter) (winter barley; Rate 250 g/ha, 0 to 100 scale): 10
Plant response rating, Barley (winter) (winter barley; [16]): 30

CCCCCn1c(=O)on(C(=O)N(c2ccc(F)cc2F)C(C)C)c1=O [Compound 636]
Plant response rating, Cocklebur (cocklebur; [5]): 0
Plant response rating, Cocklebur (cocklebur; [6]): 3
Cocklebur plant response rating (cocklebur; [17]): 3
Plant response rating, Cocklebur (cocklebur; [18]): 3
Cocklebur plant response rating (cocklebur; [19]): 0
Cocklebur plant response rating (cocklebur; [20]): 0
Plant response rating, Cocklebur (cocklebur; [21]): 0
Plant response rating, Cocklebur (cocklebur; [22]): 0
Plant response rating, Crabgrass (crabgrass; [5]): 3
Plant response rating, Crabgrass (crabgrass; [6]): 9
Crabgrass plant response rating (crabgrass; [17]): 9
Plant response rating, Crabgrass (crabgrass; [18]): 9
Crabgrass plant response rating (crabgrass; [19]): 8
Crabgrass plant response rating (crabgrass; [20]): 9
Plant response rating, Crabgrass (crabgrass; [21]): 10
Plant response rating, Crabgrass (crabgrass; [22]): 10
Plant response rating, Wheat (wheat; [5]): 0
Plant response rating, Wheat (wheat; [6]): 0
Wheat plant response rating (wheat; [17]): 0
Wheat plant response rating (wheat; [19]): 0
Wheat plant response rating (wheat; [20]): 0
Plant response rating, Wheat (wheat; [21]): 0
Plant response rating, Wheat (wheat; [22]): 2
Plant response rating, Wild oats (wild oat [1]; [5]): 0
Plant response rating, Wild oats (wild oat [1]; [6]): 0
Wild oats plant response rating (wild oat [1]; [17]): 0
Wild oats plant response rating (wild oat [1]; [19]): 0
Wild oats plant response rating (wild oat [1]; [20]): 0
Plant response rating, Wild oats (wild oat [1]; [21]): 0
Plant response rating, Wild oats (wild oat [1]; [22]): 5
